According to patent US12679843B2, “Pyrrolopyrimidine amines as complement inhibitors” (BioCryst Pharmaceuticals, Inc., priority 2020, dated 2026):

Biological target: Factor D (Homo sapiens, UniProt P00746)
Experiment: Factor D esterolytic assay (Z-Lys-SBzl thioester substrate, DTNB, 405 nm)
Type: biochemical
Conditions: substrate Z-Lys-SBzl 1.29 mM, 100 mM HEPES, 500 mM NaCl, pH 7.5, 10% DMSO, tested a minimum of three times
In short: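 Run in pH 7.5 HEPES (100 mM) with 500 mM NaCl and 10% DMSO, with compound preincubated at room temperature or not before adding 1.29 mM Z-Lys-SBzl. Free thiol released by Factor D reacts with DTNB, and rate is followed at 405 nm minus 690 nm over 600 s. IC50 derives from rate-based inhibition, minimum three replicates.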

Chain of Factor D (P00746 26-253): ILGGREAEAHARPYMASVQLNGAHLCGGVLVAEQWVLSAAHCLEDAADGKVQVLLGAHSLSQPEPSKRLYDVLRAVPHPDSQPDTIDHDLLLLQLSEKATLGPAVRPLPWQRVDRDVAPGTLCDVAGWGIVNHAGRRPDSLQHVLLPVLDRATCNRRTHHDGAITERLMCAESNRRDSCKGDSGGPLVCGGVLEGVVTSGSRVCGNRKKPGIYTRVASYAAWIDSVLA

| Compound | IC50 [nM] |
| --- | --- |
| Cc1ccc(Br)nc1NC(=O)[C@@H]1C[C@@H](F)CN1C(=O)Cn1cnc2c(N)ncnc21 [Compound 68a, (2S,4R)-1-(2-(6-amino-9H-purin-9-yl)acetyl)-N-(6-bromo-3-methylpyridin-2-yl)-4-fluoropyrrolidine-2-carboxamide] | 100 to 1000 |
| C[C@@]12C[C@@H](C(=O)Nc3cccc(Br)n3)N(C(=O)Cn3c4ccccc4c4c(N)ncnc43)[C@@H]1C2 [Compound 9a, (1R,3S,5R)-2-(2-(4-amino-9H-pyrimido[4,5-b]indol-9-yl)acetyl)-N-(6-bromopyridin-2-yl)-5-methyl-2-azabicyclo[3.1.0]hexane-3-carboxamide] | < 100 |
| COC(=O)c1cn(CC(=O)N2C[C@H](F)C[C@H]2C(=O)NCc2cccc(Cl)c2F)c2ncnc(N)c12 [Compound 146a, methyl 4-amino-7-(2-((2S,4R)-2-((3-chloro-2-fluorobenzyl)carbamoyl)-4-fluoropyrrolidin-1-yl)-2-oxoethyl)-7H-pyrrolo[2,3-d]pyrimidine-5-carboxylate] | > 1000 |
| COc1cc(F)cc2c3c(N)ncnc3n(CC(=O)N3[C@@H]4C[C@@H]4C[C@H]3C(=O)Nc3cccc(Br)n3)c12 [Compound 280g, (1R,3S,5R)-2-(2-(4-amino-6-fluoro-8-methoxy-9H-pyrimido[4,5-b]indol-9-yl)acetyl)-N-(6-bromopyridin-2-yl)-2-azabicyclo[3.1.0]hexane-3-carboxamide] | < 100 |
| CC(C)(C)CCNC(=O)[C@@H]1C[C@H]2C[C@H]2N1C(=O)Cn1cnc2c(N)ncnc21 [Compound 95c, (1R,3S,5R)-2-(2-(6-amino-9H-purin-9-yl)acetyl)-N-(3,3-dimethylbutyl)-2-azabicyclo[3.1.0]hexane-3-carboxamide] | > 1000 |
| Cc1cc(-c2ccc(C(F)(F)F)nc2)cc2c3c(N)ncnc3n(CC(=O)N3[C@H](C(=O)Nc4cccc(Br)n4)C[C@@]4(C)C[C@@H]34)c12 [Compound 357a, (1R,3S,5R)-2-(2-(4-amino-8-methyl-6-(6-(trifluoromethyl)pyridin-3-yl)-9H-pyrimido[4,5-b]indol-9-yl)acetyl)-N-(6-bromopyridin-2-yl)-5-methyl-2-azabicyclo[3.1.0]hexane-3-carboxamide] | < 100 |
| Nc1ncnc2c1ncn2CC(=O)N1C[C@H](F)C[C@H]1C(=O)NCc1cccc(Cl)c1F [Compound 104a, (2S,4R)-1-(2-(6-amino-9H-purin-9-yl)acetyl)-N-(3-chloro-2-fluorobenzyl)-4-fluoropyrrolidine-2-carboxamide] | < 100 |
| C[C@@]12C[C@@H](C(=O)Nc3cccc(Br)n3)N(C(=O)Cn3c4ncnc(N)c4c4cccc(-c5ccccc5)c43)[C@@H]1C2 [Compound 245a, (1R,3S,5R)-2-(2-(4-amino-8-phenyl-9H-pyrimido[4,5-b]indol-9-yl)acetyl)-N-(6-bromopyridin-2-yl)-5-methyl-2-azabicyclo[3.1.0]hexane-3-carboxamide] | < 100 |
| CO[C@@H]1C[C@@H](C(=O)Nc2cccc(Br)n2)N(C(=O)Cn2c3ccc(C(F)(F)F)cc3c3c(N)ncnc32)C1 [Compound 248d, (2S,4R)-1-(2-(4-amino-6-(trifluoromethyl)-9H-pyrimido[4,5-b]indol-9-yl)acetyl)-N-(6-bromopyridin-2-yl)-4-methoxypyrrolidine-2-carboxamide] | > 1000 |
| NC(=O)c1cn(CC(=O)N2C[C@H](F)C[C@H]2C(=O)NCc2cccc(Cl)c2F)c2ncnc(N)c12 [Compound 140a, 4-amino-7-(2-((2S,4R)-2-((3-chloro-2-fluorobenzyl)carbamoyl)-4-fluoropyrrolidin-1-yl)-2-oxoethyl)-7H-pyrrolo[2,3-d]pyrimidine-5-carboxamide] | > 1000 |
| COc1cc2c3c(N)ncnc3n(CC(=O)N3[C@@H]4C[C@@H]4C[C@H]3C(=O)Nc3cccc(Br)n3)c2cc1F [Compound 330f, (1R,3S,5R)-2-(2-(4-amino-7-fluoro-6-methoxy-9H-pyrimido[4,5-b]indol-9-yl)acetyl)-N-(6-bromopyridin-2-yl)-2-azabicyclo[3.1.0]hexane-3-carboxamide] | < 100 |
| Nc1ccc2c3c(N)ncnc3n(CC(=O)N3[C@@H]4C[C@@H]4C[C@H]3C(=O)Nc3cccc(Br)n3)c2c1 [Compound 18a, (1R,3S,5R)—N-(6-bromopyridin-2-yl)-2-(2-(4,7-diamino-9H-pyrimido[4,5-b]indol-9-yl)acetyl)-2-azabicyclo[3.1.0]hexane-3-carboxamide] | < 100 |
| Cc1cc(F)c(Br)nc1NC(=O)[C@@H]1C[C@@]2(C)C[C@H]2N1C(=O)Cn1c2ncnc(N)c2c2cc(C(F)(F)F)cc(C)c21 [Compound 333c, (1R,3S,5R)-2-(2-(4-amino-8-methyl-6-(trifluoromethyl)-9H-pyrimido[4,5-b]indol-9-yl)acetyl)-N-(6-bromo-5-fluoro-3-methylpyridin-2-yl)-5-methyl-2-azabicyclo[3.1.0]hexane-3-carboxamide] | < 100 |
| Nc1ncnc2c1c1ccncc1n2CC(=O)N1[C@@H]2C[C@@H]2C[C@H]1C(=O)Nc1cccc(Br)n1 [Compound 29f, (1R,3S,5R)-2-(2-(4-amino-9H-pyrido[4′,3′:4,5]pyrrolo[2,3-d]pyrimidin-9-yl)acetyl)-N-(6-bromopyridin-2-yl)-2-azabicyclo[3.1.0]hexane-3-carboxamide] | < 100 |
| Nc1ncnc2c1c1cc(C(F)(F)F)ccc1n2CC(=O)N1C[C@H](F)C[C@H]1C(=O)Nc1cccc(Br)n1 [Compound 26a, (2S,4R)-1-(2-(4-amino-6-(trifluoromethyl)-9H-pyrimido[4,5-b]indol-9-yl)acetyl)-N-(6-bromopyridin-2-yl)-4-fluoropyrrolidine-2-carboxamide] | < 100 |
| COc1cccc2c3c(N)ncnc3n(CC(=O)N3[C@@H]4C[C@@H]4C[C@H]3C(=O)Nc3cccc(Br)n3)c12 [Compound 54g, (1R,3S,5R)-2-(2-(4-amino-8-methoxy-9H-pyrimido[4,5-b]indol-9-yl)acetyl)-N-(6-bromopyridin-2-yl)-2-azabicyclo[3.1.0]hexane-3-carboxamide] | < 100 |
| Nc1ncnc2c1ncn2CC(=O)N1CCS[C@H]1C(=O)NCc1cccc(Cl)c1F [Compound 105b, (S)-3-(2-(6-amino-9H-purin-9-yl)acetyl)-N-(3-chloro-2-fluorobenzyl)thiazolidine-2-carboxamide] | 100 to 1000 |
| C[C@@]12C[C@@H](C(=O)Nc3cccc(Br)n3)N(C(=O)Cn3c4cc(F)c(Br)cc4c4c(N)ncnc43)[C@@H]1C2 [Compound 390a, (1R,3S,5R)-2-(2-(4-amino-6-bromo-7-fluoro-9H-pyrimido[4,5-b]indol-9-yl)acetyl)-N-(6-bromopyridin-2-yl)-5-methyl-2-azabicyclo[3.1.0]hexane-3-carboxamide] | < 100 |
| COc1cc2c3c(N)ncnc3n(CC(=O)N3[C@@H]4C[C@@H]4C[C@H]3C(=O)Nc3cccc(Br)n3)c2cc1OC [Compound 276g, (1R,3S,5R)-2-(2-(4-amino-6,7-dimethoxy-9H-pyrimido[4,5-b]indol-9-yl)acetyl)-N-(6-bromopyridin-2-yl)-2-azabicyclo[3.1.0]hexane-3-carboxamide] | < 100 |
| Nc1ncnc2c1ccn2CC(=O)N1[C@@H]2C[C@@H]2C[C@H]1C(=O)Nc1cccc(Br)n1 [Compound 80a, (1R,3S,5R)-2-(2-(4-amino-7H-pyrrolo[2,3-d]pyrimidin-7-yl)acetyl)-N-(6-bromopyridin-2-yl)-2-azabicyclo[3.1.0]hexane-3-carboxamide] | < 100 |
| Nc1ncnn2c(CC(=O)N3[C@@H]4C[C@@H]4C[C@H]3C(=O)NCc3cccc(Cl)c3F)ccc12 [Compound 66b, (1R,3S,5R)-2-(2-(4-aminopyrrolo[2,1-f][1,2,4]triazin-7-yl)acetyl)-N-(3-chloro-2-fluorobenzyl)-2-azabicyclo[3.1.0]hexane-3-carboxamide] | 100 to 1000 |
| Cc1ccnc2c3c(N)ncnc3n(CC(=O)N3[C@H](C(=O)Nc4cccc(Br)n4)C[C@@]4(C)C[C@@H]34)c12 [Compound 283g, (1R,3S,5R)-2-(2-(4-amino-8-methyl-9H-pyrido[2′,3′:4,5]pyrrolo[2,3-d]pyrimidin-9-yl)acetyl)-N-(6-bromopyridin-2-yl)-5-methyl-2-azabicyclo[3.1.0]hexane-3-carboxamide] | < 100 |
| Cc1ccc(Br)nc1NC(=O)[C@@H]1C[C@@]2(C)C[C@H]2N1C(=O)Cc1ccc2c(N)ncnn12 [Compound 72a, (1R,3S,5R)-2-(2-(4-aminopyrrolo[2,1-f][1,2,4]triazin-7-yl)acetyl)-N-(6-bromo-3-methylpyridin-2-yl)-5-methyl-2-azabicyclo[3.1.0]hexane-3-carboxamide] | 100 to 1000 |
| Nc1ncnc2c1c(C(=O)O)cn2CC(=O)N1C[C@H](F)C[C@H]1C(=O)NCc1cccc(Cl)c1F [Compound 153a, 4-amino-7-(2-((2S,4R)-2-((3-chloro-2-fluorobenzyl)carbamoyl)-4-fluoropyrrolidin-1-yl)-2-oxoethyl)-7H-pyrrolo[2,3-d]pyrimidine-5-carboxylic acid] | > 1000 |
| Cc1ccc(Br)nc1NC(=O)[C@@H]1C[C@@]2(C)C[C@H]2N1C(=O)Cn1c2ncnc(N)c2c2cc(C(F)(F)F)cc(C)c21 [Compound 302a, (1R,3S,5R)-2-(2-(4-amino-8-methyl-6-(trifluoromethyl)-9H-pyrimido[4,5-b]indol-9-yl)acetyl)-N-(6-bromo-3-methylpyridin-2-yl)-5-methyl-2-azabicyclo[3.1.0]hexane-3-carboxamide] | < 100 |
| Nc1ncnc2c(CC(=O)N3C[C@H](F)C[C@H]3C(=O)NCc3cccc(Cl)c3F)cccc12 [Compound 138d, (2S,4R)-1-(2-(4-aminoquinazolin-8-yl)acetyl)-N-(3-chloro-2-fluorobenzyl)-4-fluoropyrrolidine-2-carboxamide] | 100 to 1000 |
| NCc1cn(CC(=O)N2C[C@H](F)C[C@H]2C(=O)NCc2cccc(Cl)c2F)c2ncnc(N)c12 [Compound 141a, (2S,4R)-1-(2-(4-amino-5-(aminomethyl)-7H-pyrrolo[2,3-d]pyrimidin-7-yl)acetyl)-N-(3-chloro-2-fluorobenzyl)-4-fluoropyrrolidine-2-carboxamide] | > 1000 |
